Source: patent publication US10781177B2, “Pyridine compound and use thereof” (Nippon Soda Co., Ltd., priority 2016, dated 2020)

Legend:
[1] = test system: bean aphid; assay: Efficacy confirmation test on bean aphid; format: in vivo; conditions: 125 ppm sprayed on cowpea seedlings with bean aphid nymphs, 4th day after spraying; read-out: Mortality rate (converted)
Protocol: (§1) An emulsion was prepared in the same manner as in Test Example 1. The emulsion was diluted with water so that the compound of the present invention is to be 125 ppm to obtain a chemical solution.
Cowpea plants were raised in No. 3 pots and inoculated with bean aphid nymphs on primary leaves. The chemical solution was sprayed on the cowpea seedlings. The cowpea seedlings were placed in a thermostatic chamber at a temperature of 25° C. and a humidity of 60%. On the 4th day after spraying, the life and death of the aphid were determined and the mortality rate was calculated. The test was performed in duplicate.
(§2) The mortality rate was calculated in the same manner as in Test Example 3.

[2] = test system: Tetranychus kanzawai; assay: Efficacy confirmation test on Tetranychus kanzawai; format: in vivo; conditions: 125 ppm sprayed on kidney bean seedlings with female imagoes, 10th day after spraying, read-out: Mortality rate (converted)
Protocol: as §1
Kidney bean plants were raised in 3 pots, and inoculated with 10 female imagoes of tetranychus kanzawai on primary leaves. The medicinal solution was sprayed on the kidney bean seedlings. The kidney bean seedlings were placed in a thermostatic chamber at a temperature of 25° C. and a humidity of 65%. On the 10th day after spraying, the survival and death of imagoes of tetranychus kanzawai were determined and the mortality rate was calculated. The test was performed in duplicate.
as §2

| SMILES | mortality at 125 ppm [1] | mortality at 125 ppm [2] | melting point |
| --- | --- | --- | --- |
| COC(=O)Oc1c(C)c(C)nc(C)c1Cc1ccc(Oc2ccc(OC(F)(F)F)cc2)cc1 [1-3, methyl (2,3,6-trimethyl-5-((4-(4-(trifluoromethoxy)phenoxy)phenyl)methyl)-4-pyridyl) carbonate] | 100% | 100% | – |
| COC(=O)Oc1c(C)c(C)nc(C(C)C)c1Cc1ccc(Oc2ccc(OC(F)(F)F)cc2)cc1 [1-9, (2-isopropyl-5,6-dimethyl-3-((4-(4-(trifluoromethoxy)phenoxy)phenyl)methyl)-4-pyridyl) methyl carbonate] | 100% | 100% | – |
| COC(=O)Oc1c(C)c(C)nc(C(C)C)c1Cc1ccc(-c2noc(C(F)(F)F)n2)cc1 [1-44, 2-isopropyl-5,6-dimethyl-3-(4-(5-(trifluoromethyl)-1,2,4-oxadiazole-3-yl)benzyl) pyridine-4-yl methyl carbonate] | 100% | 100% | – |
| Cc1nc(C)c(Cc2cc(-c3ccc(C(F)(F)F)cc3)on2)c(OCc2ccccc2)c1C [7-4] | – | – | 118 to 121 °C |
| Cc1nc(C)c(Cc2cc(-c3ccc(C(F)(F)F)cc3)on2)c(O)c1C [7-5] | – | – | 200 °C |
| CC(=O)Oc1c(C)c(C)nc(C)c1Cc1cc(-c2ccc(C(F)(F)F)cc2)on1 [7-6] | – | – | 170 to 173 °C |
| C=CCOc1c(C)c(C)nc(C)c1CN1C(=O)c2ccccc2C1=O [7-7] | – | – | 145 to 147 °C |
| Cc1nc(C(C)C)c(Cc2ccc(-c3ccc(OC(F)(F)F)cc3)s2)c(O)c1C [7-8] | – | – | 250 °C |
| COC(=O)Oc1c(C)c(C)nc(C(C)C)c1Cc1ccc(-c2ccc(OC(F)(F)F)cc2)s1 [7-9] | 100% | – | – |
| Cc1nc(C(C)C)c(Cc2ccc3ccccc3c2)c(O)c1C [7-11] | – | – | 268 to 270 °C |
| COC(=O)Oc1c(C)c(C)nc(C(C)C)c1Cc1ccc2ccccc2c1 [7-12] | – | 100% | – |
| Cc1nc2cc(Cc3c(C(C)C)nc(C)c(C)c3O)ccc2s1 [7-13] | – | – | 284 to 286 °C |
| Cc1nc(C(C)C)c(Cc2ccc3c(c2)CCC3c2ccc(F)cc2)c(O)c1C (stereo not shown) [7-15] | – | – | 260 to 262 °C |
| COC(=O)Oc1c(C)c(C)nc(C(C)C)c1Cc1ccc2c(c1)CCC2c1ccc(F)cc1 (stereo not shown) [7-16] | – | 100% | – |
| Cc1nc(C(C)C)c(Cc2cccc3c2CCC3c2ccc(F)cc2)c(O)c1C (stereo not shown) [7-17] | – | – | 296 to 298 °C |
| Cc1nc(C(C)C)c(Cc2ccc3sc(C(F)(F)F)nc3c2)c(O)c1C [7-19] | – | – | 273 to 274 °C |
| COC(=O)Oc1c(C)c(C)nc(C(C)C)c1Cc1ccc2sc(C(F)(F)F)nc2c1 [7-20] | – | 100% | – |
| Cc1nc(C(C)C)c(Cc2ccc3ncccc3c2)c(O)c1C [7-21] | – | – | 254 to 256 °C |
| COC(=O)Oc1c(C)c(C)nc(C(C)C)c1Cc1ccc2ncccc2c1 [7-22] | – | – | 127 to 128 °C |

| SMILES | mortality at 125 ppm [1] | mortality at 125 ppm [2] | melting point |
| --- | --- | --- | --- |
| Cc1nc(C(C)C)c(Cc2ccc3cc(C(F)(F)F)ccc3c2)c(O)c1C [7-24] | – | – | 268 to 269 °C |
| COC(=O)Oc1c(C)c(C)nc(C(C)C)c1Cc1ccc2nc(C(F)(F)F)ccc2c1 [7-25] | – | 100% | – |
| Cc1nc(C(C)C)c(Cc2ccc3ccc(C(F)(F)F)nc3c2)c(O)c1C [7-26] | – | – | 290 to 292 °C |
| COC(=O)Oc1c(C)c(C)nc(C(C)C)c1Cc1ccc2ccc(C(F)(F)F)nc2c1 [7-27] | – | – | 125 to 126 °C |
| Cc1nc(C(C)C)c(Cc2ccc3c(c2)C(c2ccc(F)cc2)CC3)c(O)c1C (stereo not shown) [7-28] | – | – | 221 to 224 °C |
| Cc1nc(C(C)C)c(Cc2cccc3c2oc2ccccc23)c(O)c1C [7-30] | – | – | 300 °C |
| COC(=O)Oc1c(C)c(C)nc(C(C)C)c1Cc1cccc2c1oc1ccccc12 [7-31] | – | – | 114 to 116 °C |
| Cc1nc(C(C)C)c(Cc2ccc3sc4ccccc4c3c2)c(O)c1C [7-32] | – | – | 300 °C |
| COC(=O)Oc1c(C)c(C)nc(C(C)C)c1Cc1ccc2sc3ccccc3c2c1 [7-33] | – | – | 154 to 155 °C |
| COCCC(=O)NC1CCc2cc(Cc3c(C(C)C)nc(C)c(C)c3O)ccc21 (stereo not shown) [7-34] | – | – | 115 to 120 °C |
| COc1c(C)c(C)nc(C(C)C)c1Cc1ccc(C2CCC3(CC2)OCCO3)cc1 [7-42] | – | – | 107 to 108 °C |
| CCO/N=C(/NC(=O)C1CCC(C)CC1)c1ccc(Cc2c(C(C)C)nc(C)c(C)c2O)cc1 (stereo not shown) [7-43] | – | – | 101 to 115 °C |
| CCO/N=C(/NC(=O)C(F)(F)C(F)(F)F)c1ccc(Cc2c(C(C)C)nc(C)c(C)c2O)cc1 [7-45] | – | – | 210 to 212 °C |
| CCO/N=C(/NC(=O)C(F)(F)C(F)(F)F)c1ccc(Cc2c(C(C)C)nc(C)c(C)c2OC(=O)OC)cc1 [7-46] | – | – | 98 to 100 °C |
| COC(=O)Oc1c(C)c(C)nc(C(C)C)c1Cc1ccc(C(=O)NC(=O)C2CCC(C)CC2)cc1 (stereo not shown) [7-47] | – | – | 169 to 171 °C |
| COc1c(C)c(C)nc(C(C)C)c1Cc1ccc(NC(=O)CC(C)(C)C)cc1 [7-51] | – | – | 154 to 155 °C |
| Cc1nc(C(C)C)c(Cc2ccc(NC(=O)CC(C)(C)C)cc2)c(O)c1C [7-52] | – | – | 300 °C |
| COC(=O)Oc1c(C)c(C)cc(C(C)C)c1Cc1ccc(-c2ccc(C(C)=NOC3CCC(C(F)(F)F)CC3)cc2)cc1 (stereo not shown) [7-53] | – | – | 58 to 59 °C |
